Measurements: paper PMC12042115 (mLife, 2025)

Tested on: wild‐type BCG cells
Format: cell-based, M. bovis BCG
Settings: protein A0A0H3MG19, BCG_2669 (Rv2642), Arsenical resistance operon repressor; down-regulated; 3 d

O=C(Oc1ccc(Cl)cc1)c1ccc(N2CCOCC2)c([N+](=O)[O-])c1 [GDI‐5755]
Mean_Ratio (GDI5755_3d vs DMSO_3d): 0.7
